Measurements from ChEMBL document CHEMBL1136509, “Structure-activity relationships of novel anti-malarial agents: part 5. N-(4-acylamino-3-benzoylphenyl)-[5-(4-nitrophenyl)-2-furyl]acrylic acid amides” (Bioorg Med Chem Lett, 2003).

system: Plasmodium falciparum; assay: Inhibitory activity against Plasmodium falciparum Dd2 in erythrocytes by semiautomated micro dilution; assay type: functional, organism-based

Compound | IC50
O=C(/C=C/c1ccc(-c2ccc([N+](=O)[O-])cc2)o1)Nc1ccc(NC(=O)Cc2ccccc2C(F)(F)F)c(C(=O)c2ccccc2)c1 | 1000 nM
O=C(/C=C/c1ccc(-c2ccc([N+](=O)[O-])cc2)o1)Nc1ccc(NC(=O)Cc2ccccc2Br)c(C(=O)c2ccccc2)c1 | 1000 nM
O=C(/C=C/c1ccc(-c2ccc([N+](=O)[O-])cc2)o1)Nc1ccc(NC(=O)c2ccc(Cl)cc2)c(C(=O)c2ccccc2)c1 | 2500 nM
Cc1ccccc1CC(=O)Nc1ccc(NC(=O)/C=C/c2ccc(-c3ccc([N+](=O)[O-])cc3)o2)cc1C(=O)c1ccccc1 | 650 nM
O=C(/C=C/c1ccc(-c2ccc([N+](=O)[O-])cc2)o1)Nc1ccc(NC(=O)c2cccc3ccccc23)c(C(=O)c2ccccc2)c1 | 770 nM
O=C(/C=C/c1ccc(-c2ccc([N+](=O)[O-])cc2)o1)Nc1ccc(NC(=O)Cc2ccc(Cl)cc2)c(C(=O)c2ccccc2)c1 | 64 nM
O=C(/C=C/c1ccc(-c2ccc([N+](=O)[O-])cc2)o1)Nc1ccc(NC(=O)Cc2ccc(-c3ccccc3)cc2)c(C(=O)c2ccccc2)c1 | 1000 nM
COc1ccc(CC(=O)Nc2ccc(NC(=O)/C=C/c3ccc(-c4ccc([N+](=O)[O-])cc4)o3)cc2C(=O)c2ccccc2)cc1 | 320 nM
O=C(/C=C/c1ccc(-c2ccc([N+](=O)[O-])cc2)o1)Nc1ccc(NC(=O)C(c2ccccc2)c2ccccc2)c(C(=O)c2ccccc2)c1 | 5500 nM
O=C(/C=C/c1ccc(-c2ccc([N+](=O)[O-])cc2)o1)Nc1ccc(NC(=O)Cc2ccc([N+](=O)[O-])cc2)c(C(=O)c2ccccc2)c1 | 1400 nM
O=C(/C=C/c1ccc(-c2ccc([N+](=O)[O-])cc2)o1)Nc1ccc(NC(=O)c2ccccc2)c(C(=O)c2ccccc2)c1 | 3000 nM
CC(C(=O)Nc1ccc(NC(=O)/C=C/c2ccc(-c3ccc([N+](=O)[O-])cc3)o2)cc1C(=O)c1ccccc1)c1ccccc1 (stereo not given) | 500 nM
O=C(/C=C/c1ccc(-c2ccc([N+](=O)[O-])cc2)o1)Nc1ccc(NC(=O)c2ccc3ccccc3c2)c(C(=O)c2ccccc2)c1 | 2500 nM

More lines, now with the values ahead:

IC50 | Compound
210 nM | O=C(/C=C/c1ccc(-c2ccc([N+](=O)[O-])cc2)o1)Nc1ccc(NC(=O)Cc2ccc3ccccc3c2)c(C(=O)c2ccccc2)c1
150 nM | Cc1cccc(CC(=O)Nc2ccc(NC(=O)/C=C/c3ccc(-c4ccc([N+](=O)[O-])cc4)o3)cc2C(=O)c2ccccc2)c1
270 nM | O=C(/C=C/c1ccc(-c2ccc([N+](=O)[O-])cc2)o1)Nc1ccc(NC(=O)Cc2ccccc2)c(C(=O)c2ccccc2)c1
47 nM | O=C(/C=C/c1ccc(-c2ccc([N+](=O)[O-])cc2)o1)Nc1ccc(NC(=O)Cc2ccc(C(F)(F)F)cc2)c(C(=O)c2ccccc2)c1
250 nM | O=C(/C=C/c1ccc(-c2ccc([N+](=O)[O-])cc2)o1)Nc1ccc(NC(=O)Cc2cccc3ccccc23)c(C(=O)c2ccccc2)c1
70 nM | O=C(/C=C/c1ccc(-c2ccc([N+](=O)[O-])cc2)o1)Nc1ccc(NC(=O)Cc2ccc(Br)cc2)c(C(=O)c2ccccc2)c1
230 nM | O=C(/C=C/c1ccc(-c2ccc([N+](=O)[O-])cc2)o1)Nc1ccc(NC(=O)Cc2ccc(F)cc2)c(C(=O)c2ccccc2)c1
